Where two headings read alike, the source gives them in different places.
Experiments:
DLD-1 WT = experiment: Anti-proliferative activity (CellTiter-Glo, 7 days), DLD-1 WT; type: cell-based, human; conditions: for inhibition on cell proliferation at the highest concentration: BRCA2-normal DLD-1 cell line, 10 µM; for IC50: Homo sapiens, DLD-1, 168 h, BRCA2-normal, 7 days
Procedure: The anti-proliferation experiment of the compounds on tumour cells adopted the most widely used ATP concentration-based detection method at present. MDA-MB-231 and MDA-MB-436 cell lines were obtained from ATCC, DLD-1 human colourectal adenocarcinoma epithelial cells and DLD-1 BRCA2^-/- cells were obtained from Horizon, and the cells were revived. After the cells were stable, the cells were collected. When the viable cell count exceeded 90%, 450-500 cells were seeded into a 384-well plate. The next day, the example compounds with serially diluted concentrations were added. Only buffer was added to the Max well, and 50 µM AZD2281 was added to the Min well. The plate was incubated for 7 days, and on the eighth day, CellTiter-Glo® reagent (Promega, G7573) was added. The plate was incubated at room temperature for 30 minutes, and the values were read on Envision (PE). The inhibition rate was calculated using the fluorescence values from the Max and Min wells, and the dose-response curve was fitted using the analysis software GraphPad Prism 5 to obtain the IC50 value of each compound for the enzyme activity.

A549 PARP1-KO cell lines = experiment: Cellular PARylation inhibition, high-content imaging, PARP1-KO; type: cell-based; conditions: for IC50: Homo sapiens, A549, PARylation at the cellular level; for inhibition on the enzyme activity at the highest concentration: A549 PARP1-KO cell lines, 40 µM
A549 WT = experiment: Cellular PARylation inhibition, high-content imaging, A549 WT; type: cell-based; conditions: Homo sapiens, PARylation at the cellular level
Procedure: The inhibitory effect of the compounds on PARP1/PARP2 enzyme activity at the cellular level was detected using high-content imaging. A549 WT, PARP1-KO and PARP2-KO cell lines were established in-house, and the cells were revived. After the cells were stable, a sufficient number of cells were collected and 100 µL of the cell suspension was seeded into a 96-well plate. The next day, the example compounds with serially diluted concentrations were added. […] The plate was incubated for 1.5 hours (A549 WT and PARP2-KO cell lines) or 2 hours (PARP1-KO cell line). After removing the supernatant, 0.4 mM H2O2 was added and incubation was carried out for 10 minutes (A549 WT and PARP2-KO cell lines) or 1.5 mM H2O2 was added and incubation was carried out for 15 minutes (PARP1-KO cell line) to induce extensive cellular DNA damage. After removing the supernatant, the cells were fixed with 4% paraformaldehyde for 20 minutes, followed by treatment with 0.5% Triton X-100 for 20 minutes to increase the permeability of the cell membrane. After that, the cells were incubated with 3% BSA for 1 hour to prevent non-specific binding. […] The cell nuclei were stained for 30 minutes by adding 50 µL DAPI (invitrogen, R37606). After washing twice with PBS, images were acquired on OPERETTA CLS™ (PE) by scanning the cells under a 20x water objective lens in non-confocal mode, with 5 fields of view captured per well. […] The inhibition rate was calculated using the fluorescence values from the Max and Min wells, and the dose-response curve was fitted using the analysis software GraphPad Prism 5 to obtain the IC50 value of each compound for the enzyme activity.

PARP2 [1] = biological target: T1, PARP2 (Homo sapiens, UniProt Q9UGN5); experiment: Inhibition of PARP2 enzyme activity (chemiluminescence); type: biochemical
T1 construct: purchased BPS 80502

MDA-MB-436 = experiment: Anti-proliferative activity (CellTiter-Glo, 7 days), MDA-MB-436; type: cell-based, human; conditions: for IC50: Homo sapiens, MDA-MB-436, 168 h, BRCA1-mutated, 7 days, read-out: MDA-MB-436 IC50; for BRCA1 mutation/WT selectivity fold: MDA-MB-231 vs MDA-MB-436
A549 PARP2-KO cell line = experiment: Cellular PARylation inhibition, high-content imaging, PARP2-KO; type: cell-based; conditions: for IC50: Homo sapiens
PARP2 [2] = biological target: T1, PARP2; experiment: DNA trapping capability of PARP2 (HTRF); type: biochemical
PARP1 [3] = biological target: T2, PARP1 (Homo sapiens, UniProt P09874); experiment: Inhibition of PARP1 enzyme activity (chemiluminescence); type: biochemical; conditions: for PARP1/2 selectivity fold: PARP2 vs PARP1
T2 construct: purchased BPS 80501

MDA-MB-231 = experiment: Anti-proliferative activity (CellTiter-Glo, 7 days), MDA-MB-231; type: cell-based, human; conditions: for inhibition on cell proliferation at the highest concentration: 10 µM; for IC50: Homo sapiens
[4] = Pharmacokinetic study of single administration in mice; type: in vivo; conditions: CD-1 mice
Procedure: Male CD-1 mice were used as test animals. The plasma drug concentrations of the compounds were determined and the pharmacokinetic parameters were evaluated after a single administration. Healthy adult male CD-1 mice were selected. The candidate compound was added to 10% DMSO, vortexed and sonicated. After complete dissolution, 30% PEG400 was added, followed by vortexing and sonication, and 60% double-distilled water was added to prepare a clear solution for later use. After the mice were intravenously injected at a dose of 2 mg/kg and orally administered at a dose of 10 mg/kg, whole blood was collected at 5 minutes, 15 minutes, 30 minutes, 1 hour, 2 hours, 4 hours, 8 hours, and 24 hours after administration to prepare plasma. After sample treatment, the drug concentration was analysed by LC-MS/MS method, and the pharmacokinetic parameters were calculated.

DLD-1 BRCA2^-/- = experiment: Anti-proliferative activity (CellTiter-Glo, 7 days), DLD-1 BRCA2-/-; type: cell-based, human; conditions: for BRCA2 mutation/WT selectivity fold: DLD-1 WT vs DLD-1 BRCA2^-/-; for IC50: Homo sapiens, DLD-1, 168 h, BRCA2-mutated, 7 days
PARP1 [5] = biological target: T2, PARP1; experiment: DNA trapping capability of PARP1 (HTRF); type: biochemical
[6] = PARylation at the cellular level
[7] = BRCA1-normal MDA-MB-231 cell line
[8] = MDA-MB-231, 168 h, BRCA1-normal, 7 days, read-out: MDA-MB-231 IC50
[9] = male, mouse, plasma, IV, 2 mg/kg
[10] = male, mouse, plasma, PO, 10 mg/kg
[11] = A549, PARylation at the cellular level, read-out: PARP2-KO IC50

T2 sequence (P09874 whole entry): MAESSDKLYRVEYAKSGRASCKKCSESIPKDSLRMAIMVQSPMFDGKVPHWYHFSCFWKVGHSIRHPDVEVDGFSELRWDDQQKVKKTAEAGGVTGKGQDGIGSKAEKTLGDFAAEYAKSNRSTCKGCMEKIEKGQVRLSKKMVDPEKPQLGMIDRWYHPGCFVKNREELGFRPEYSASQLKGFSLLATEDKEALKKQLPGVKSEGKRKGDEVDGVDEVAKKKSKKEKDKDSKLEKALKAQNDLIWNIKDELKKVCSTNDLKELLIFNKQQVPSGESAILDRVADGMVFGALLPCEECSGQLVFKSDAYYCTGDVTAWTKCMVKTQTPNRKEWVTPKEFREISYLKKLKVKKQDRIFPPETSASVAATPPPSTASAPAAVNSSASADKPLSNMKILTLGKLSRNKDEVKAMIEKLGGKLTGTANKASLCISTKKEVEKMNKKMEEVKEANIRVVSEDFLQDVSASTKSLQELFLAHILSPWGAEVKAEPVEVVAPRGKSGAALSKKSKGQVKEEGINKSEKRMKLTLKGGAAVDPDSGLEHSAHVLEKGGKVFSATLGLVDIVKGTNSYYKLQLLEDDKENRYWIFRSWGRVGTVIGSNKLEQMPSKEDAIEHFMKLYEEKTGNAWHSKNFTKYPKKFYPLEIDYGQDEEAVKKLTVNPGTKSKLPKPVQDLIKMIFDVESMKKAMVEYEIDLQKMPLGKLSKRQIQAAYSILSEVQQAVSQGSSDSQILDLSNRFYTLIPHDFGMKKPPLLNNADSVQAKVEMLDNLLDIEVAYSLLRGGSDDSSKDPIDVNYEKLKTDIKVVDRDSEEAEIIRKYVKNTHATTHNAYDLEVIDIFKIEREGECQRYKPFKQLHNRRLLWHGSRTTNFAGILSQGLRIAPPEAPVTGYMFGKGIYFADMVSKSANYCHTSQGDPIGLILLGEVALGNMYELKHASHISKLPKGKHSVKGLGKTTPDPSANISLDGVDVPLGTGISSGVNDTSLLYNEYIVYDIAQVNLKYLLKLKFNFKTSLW
T1 sequence (Q9UGN5 whole entry): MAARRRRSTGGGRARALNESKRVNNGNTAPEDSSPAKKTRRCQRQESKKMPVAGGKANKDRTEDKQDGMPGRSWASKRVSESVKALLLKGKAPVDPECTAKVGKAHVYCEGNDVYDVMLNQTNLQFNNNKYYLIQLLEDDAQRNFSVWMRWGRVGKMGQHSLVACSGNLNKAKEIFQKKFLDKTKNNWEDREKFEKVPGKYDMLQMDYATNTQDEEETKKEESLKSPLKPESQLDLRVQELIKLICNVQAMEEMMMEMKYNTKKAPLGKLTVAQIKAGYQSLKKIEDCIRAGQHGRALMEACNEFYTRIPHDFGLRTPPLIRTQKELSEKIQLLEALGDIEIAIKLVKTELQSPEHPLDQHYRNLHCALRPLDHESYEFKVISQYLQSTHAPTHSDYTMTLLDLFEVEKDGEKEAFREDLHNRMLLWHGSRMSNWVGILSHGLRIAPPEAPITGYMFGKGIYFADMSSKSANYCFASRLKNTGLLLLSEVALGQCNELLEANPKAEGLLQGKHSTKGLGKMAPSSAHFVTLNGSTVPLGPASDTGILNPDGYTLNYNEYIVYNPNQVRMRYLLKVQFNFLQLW

| SMILES | inhibition on cell proliferation at the highest concentration (DLD-1 WT) | IC50 (DLD-1 WT) | IC50 (A549 PARP1-KO cell lines) | IC50 (A549 WT) | IC50 (PARP2 [1]) | IC50 (MDA-MB-436) | BRCA1 mutation/WT selectivity fold (MDA-MB-436) | PARP1 KO/PARP2 KO selectivity fold (A549 PARP2-KO cell line; [6]) | EC50 (PARP2 [2]) | IC50 (PARP1 [3]) | PARP1/2 selectivity fold (PARP1 [3]) | inhibition on cell proliferation at the highest concentration (MDA-MB-231; [7]) | IC50 (MDA-MB-231; [8]) | BRCA2 mutation/WT selectivity fold (DLD-1 BRCA2^-/-) | IC50 (DLD-1 BRCA2^-/-) | EC50 (PARP1 [5]) | inhibition on the enzyme activity at the highest concentration (A549 PARP1-KO cell lines) | IC50 (A549 PARP2-KO cell line; [11]) | also measured |
| --- | --- | --- | --- | --- | --- | --- | --- | --- | --- | --- | --- | --- | --- | --- | --- | --- | --- | --- | --- |
| CCc1c(N)c2ncc(CN3CCN(c4ccc(C(=O)NC)nc4)CC3)cc2[nH]c1=O [Example 1, 5-(4-((8-Amino-7-ethyl-6-oxo-5,6-dihydro-1,5-naphthyridin-3-yl)methyl)piperazin-1-yl)-N-methylpicolinamide] | no detectable inhibition | > 10000 nM | 47700 nM | 14.4 nM | 52.8 nM | 16.4 nM | >608 fold | 660 fold | 168 nM | 0.49 nM | 108 fold | no detectable inhibition | > 10000 nM | >538 fold | 18.6 nM | 1.78 nM |  |  | IC50 (A549 PARP2-KO cell line; A549, read-out: PARP2-KO IC50): 72.2 nM; Exposure inf ([4]; IV, 2 mg/kg): 38.222 µg·h/mL; Exposure last ([4]; IV, 2 mg/kg): 38.128 µg·h/mL; Exposure inf ([4]; PO, 10 mg/kg): 191.246 µg·h/mL; Exposure last ([4]; PO, 10 mg/kg): 189.56 µg·h/mL; Peak concentration ([4]; PO, 10 mg/kg): 15700 ng/mL; Time to peak ([4]; PO, 10 mg/kg): 2 h; clearance [4, 9]: 0.872 mL/min/kg; half-life [4, 9]: 2.81 h; Vd ([4]; male, mouse, plasma, IV, 2 mg/kg, read-out: Apparent volume of distribution): 0.218 L/kg; bioavailability [4, 10]: 100%; half-life [4, 10]: 3.51 h |
| CCc1c(N)c2ncc(CN3CCN(c4ccc(C(=O)NOC)nc4F)CC3)cc2[nH]c1=O [Example 2, 5-(4-((8-Amino-7-ethyl-6-oxo-5,6-dihydro-1,5-naphthyridin-3-yl)methyl)piperazin-1-yl)-6-fluoro-N-methoxypicolinamide] | no detectable inhibition | > 10000 nM | > 40000 nM | 10.5 nM | 17 nM | 5.74 nM | >1,742 fold | >648 fold | 338 nM | 0.39 nM | 44 fold | no detectable inhibition | > 10000 nM | >1,162 fold | 8.62 nM | 3.73 nM | no detectable inhibition | 61.7 nM |  |
| CCc1c(N)c2ncc(CN3CCN(c4ccc(C(=O)NC)nc4F)CC3)cc2[nH]c1=O [Example 3, 5-(4-((8-Amino-7-ethyl-6-oxo-5,6-dihydro-1,5-naphthyridin-3-yl)methyl)piperazin-1-yl)-6-fluoro-N-methylpicolinamide] | no detectable inhibition | > 10000 nM | > 40000 nM | 5.9 nM | 8.7 nM | 1.27 nM | 5,828 fold | >2468 fold | 249 nM | 0.41 nM | 21 fold |  | 7400 nM | >1,972 fold | 5.07 nM | 3.87 nM | no detectable inhibition | 16.2 nM | IC50 (MDA-MB-231; BRCA1-normal MDA-MB-231 cell line, read-out: IC50): 7400 nM; PARP1/2 selectivity fold (PARP1 [5]): 64 fold |
